In article PMC3849131, “^18 F-click labeling and preclinical evaluation of a new ^18 F-folate for PET imaging” (EJNMMI Research, 2013):

How the values were obtained:
KB tumor-bearing mice = test: Ex vivo biodistribution in human KB tumor-bearing nude mice; conditions: for Ratio of tumor to Blood / Ratio of tumor to Kidney / Ratio of tumor to Liver / %ID/g Blood / %ID/g Bone / %ID/g Feces / %ID/g Gall bladder / %ID/g Heart / %ID/g Intestines (empty) / %ID/g Tumor / %ID/g Kidneys / %ID/g Liver / %ID/g Lung / %ID/g Muscle / %ID/g Salivary glands / %ID/g Spleen / %ID/g Stomach (empty): n = 3; for %ID/g Tumor: KB tumor
Description: All animal experiments were approved by the local veterinary department and complied with Swiss and local laws on animal protection. Female CD-1 nude mice (Charles River, Sulzfeld, Germany) were fed with a folate-deficient rodent diet (Harlan Laboratories, Indianapolis, IN, USA). After an acclimatization period of 5 to 7 days, human KB tumor cells (5 × 10^6 cells in 0.1 mL sterile phosphate-buffered saline (PBS)) were inoculated subcutaneously on both shoulders of each mouse. Twelve days later, the animals were intravenously injected with [^18 F]12 (approximately 5 MBq, 100 μL). […] Animals were euthanized at the indicated time points, and selected organs and tissues were collected, weighed, and measured in a γ-counter. The incorporated radioactivity was expressed as percentage injected dose per gram (%ID/g) of tissue. PET/computed tomography (CT) experiments were performed with a dedicated small-animal PET/CT scanner (eXplore Vista PET/CT, Sedecal, Algete, Spain/GE Healthcare). Animals were intravenously injected with [^18 F]12 (approximately 13 MBq, 100 μL). For scanning, mice were anesthetized with isoflurane in an air/oxygen mixture. The PET scans were acquired from 60 to 90 min post-injection (p.i.) followed by a CT. After acquisition, PET data were reconstructed in user-defined time frames, and the fused datasets of PET and CT were analyzed with PMOD software (version 3.4).
Biodistribution studies of the new ^18 F-folate [^18 F]12 were performed using human KB tumor-bearing nude mice, determined at 30, 60, and 90 min post-injection. […] Selective blocking of the folate receptors led to a decrease in specific radiotracer accumulation of 94% in KB tumors and 99% in kidneys (Figure 2). The strong blocking effect reflected the high specificity of the tracer to the FR in vivo. Unspecific liver uptake decreased from 5.2%ID/g to 2.1%ID/g over 90 min similar to the background radioactivity in the feces and gall bladder (Table 2), which is believed to be a beneficial effect of the increased polarity of this novel radiofolate. Compared to the biodistribution profile at 45 min post-injection of the former ^18 F-click folate by Ross and co-workers, the specific uptake of the original ^18 F-click folate in KB tumors was retained, whereas the specific kidney uptake more than doubled. This indicated a stronger tendency to renal excretion, more likely a result of the increased polarity of the new ^18 F-folate [^18 F]12. Additionally, the highest unspecific background accumulation in the gall bladder was reduced by half. This background reduction correlated with the more renal excretion and the two times lower k’ value as an indicator of lipophilicity of the here presented radiofolate. […] On the other hand, the still increased uptake levels in the gall bladder and feces were evidence of a prominent hepatobiliary elimination pathway of [^18 F]12. However, distinct changes in the molecular structure of the folate-based radioconjugate [^18 F]12 induced a higher polarity into the lead molecule ^18 F-click folate and a significant reduction of the in vivo background.
Figure 2 Results of ex vivo biodistribution studies under control and blockade conditions using [^18 F]12 in mice. The human KB tumor-bearing nude mice were euthanized 60 min post-injection. Data are expressed as percentage injected dose per gram tissue (%ID/g).

[1] = In vitro metabolite/stability study in fetal calf serum; type: in vitro ADME; conditions: FCS, 37°C, 15, 30, 60 and 90 min
Description: A solution of [^18 F]12 (50 μL, approximately 5 MBq) was incubated with 500 μL of fetal calf serum (FCS) at 37°C and the mixture shaken at 900 rpm. The time points were set between 0 and 90 min using 500 μL of FCS and 50 μL of the radiotracer for each time point. Plasma proteins were precipitated by addition of cold acetonitrile (300 μL), followed by centrifugation (10,000 rpm, 10 min). An aliquot of each time point (15, 30, 60, and 90 min, 100 μL) was injected into the analytical radio-HPLC system for analytics.
The stability of the new radiotracer, [^18 F]12, was evaluated in the presence of FCS. For this purpose, [^18 F]12 was added to FCS and incubated at 37°C. At certain time points (15, 30, 60, and 90 min), aliquots were extracted and proteins removed by precipitation. The integrity of the radiotracer was determined by analytical radio-HPLC.

[2] = 60 min p.i., 100 μg native folic acid before tracer
[3] = 60 min p.i. blockade (100 μg folic acid 5 min before tracer)

In the case of “16-(4-(((2-amino-4-oxo-3,4-dihydropteridin-6-yl)methyl)amino)benzamido)-1-(4-(2-(2-(2-[^18 F]fluoroethoxy)ethoxy)ethoxy)-1H-1,2,3-triazol-1-yl)-13-oxo-3,6,9-trioxa-12-azaheptadecan-17-oic acid [[^18 F]12]”, the “Ratio of tumor to Blood” value (KB tumor-bearing mice; 30 min p.i.) is reported as 16.81 ± 3.13, the “Ratio of tumor to Kidney” value (KB tumor-bearing mice; 30 min p.i.) is reported as 0.08 ± 0.02 and the “Ratio of tumor to Liver” value (KB tumor-bearing mice; 30 min p.i.) is reported as 0.69 ± 0.22. For the same substance, the “decrease in specific radiotracer accumulation by FR blocking, KB tumors” value (KB tumor-bearing mice; [2]) was 94%, the “decrease in specific radiotracer accumulation by FR blocking, kidneys” value (KB tumor-bearing mice; [2]) was 99% and the “Ratio of tumor to Blood” value (KB tumor-bearing mice; 60 min p.i.) was 18.95 ± 2.68. The “Ratio of tumor to Kidney” value (KB tumor-bearing mice; 60 min p.i.) was 0.08 ± 0.01, the “Ratio of tumor to Liver” value (KB tumor-bearing mice; 60 min p.i.) was 0.86 ± 0.19 and the “Ratio of tumor to Blood” value (KB tumor-bearing mice; 90 min p.i.) was 22.72 ± 6.73. The “Ratio of tumor to Kidney” value (KB tumor-bearing mice; 90 min p.i.) was 0.09 ± 0.01, the “Ratio of tumor to Liver” value (KB tumor-bearing mice; 90 min p.i.) was 1.55 ± 0.15 and the “%ID/g Blood” value (KB tumor-bearing mice; 30 min p.i.) was 0.20 ± 0.02 %ID/g. The “%ID/g Blood” value (KB tumor-bearing mice; [3]) was 0.04 ± 0.01 %ID/g, the “%ID/g Blood” value (KB tumor-bearing mice; 60 min p.i.) was 0.18 ± 0.01 %ID/g and the “%ID/g Blood” value (KB tumor-bearing mice; 90 min p.i.) was 0.16 ± 0.02 %ID/g. For the same substance, the “%ID/g Bone” value (KB tumor-bearing mice; 30 min p.i.) was 1.47 ± 0.05 %ID/g, the “%ID/g Bone” value (KB tumor-bearing mice; [3]) was 0.06 ± 0.06 %ID/g and the “%ID/g Bone” value (KB tumor-bearing mice; 60 min p.i.) was 1.13 ± 0.21 %ID/g. For the same substance, the “%ID/g Bone” value (KB tumor-bearing mice; 90 min p.i.) was 0.84 ± 0.16 %ID/g, the “%ID/g Feces” value (KB tumor-bearing mice; 30 min p.i.) was 164.2 ± 72.5 %ID/g and the “%ID/g Feces” value (KB tumor-bearing mice; [3]) was 105.5 ± 128.7 %ID/g. The “%ID/g Feces” value (KB tumor-bearing mice; 60 min p.i.) was 29.48 ± 19.04 %ID/g, the “%ID/g Feces” value (KB tumor-bearing mice; 90 min p.i.) was 11.36 ± 4.29 %ID/g and the “%ID/g Gall bladder” value (KB tumor-bearing mice; 30 min p.i.) was 309.3 ± 187.6 %ID/g. For the same substance, the “%ID/g Gall bladder” value (KB tumor-bearing mice; [3]) was 775.5 ± 206.5 %ID/g, the “%ID/g Gall bladder” value (KB tumor-bearing mice; 60 min p.i.) was 133.2 ± 67.38 %ID/g and the “%ID/g Gall bladder” value (KB tumor-bearing mice; 90 min p.i.) was 55.13 %ID/g. For the same substance, the “%ID/g Heart” value (KB tumor-bearing mice; 30 min p.i.) was 1.81 ± 0.61 %ID/g, the “%ID/g Heart” value (KB tumor-bearing mice; [3]) was 0.02 ± 0.01 %ID/g and the “%ID/g Heart” value (KB tumor-bearing mice; 60 min p.i.) was 1.09 ± 0.07 %ID/g. For the same substance, the “%ID/g Heart” value (KB tumor-bearing mice; 90 min p.i.) was 0.79 ± 0.16 %ID/g, the “%ID/g Intestines (empty)” value (KB tumor-bearing mice; 30 min p.i.) was 23.52 ± 7.37 %ID/g and the “%ID/g Intestines (empty)” value (KB tumor-bearing mice; [3]) was 14.72 ± 19.32 %ID/g. For the same substance, the “%ID/g Intestines (empty)” value (KB tumor-bearing mice; 60 min p.i.) was 4.56 ± 2.31 %ID/g, the “%ID/g Intestines (empty)” value (KB tumor-bearing mice; 90 min p.i.) was 1.92 ± 0.52 %ID/g and the “%ID/g Tumor” value (KB tumor-bearing mice; 30 min p.i.) was 3.4 %ID/g. The “%ID/g Tumor” value (KB tumor-bearing mice; 30 min p.i., listed as 12) was 3.39 ± 0.54 %ID/g, the “%ID/g Tumor” value (KB tumor-bearing mice; [3]) was 0.19 ± 0.07 %ID/g and the “%ID/g Tumor” value (KB tumor-bearing mice; 60 min p.i.) was 3.39 ± 0.44 %ID/g. The “%ID/g Tumor” value (KB tumor-bearing mice; 90 min p.i.) was 3.54 ± 0.68 %ID/g, the “%ID/g Kidneys” value (KB tumor-bearing mice; 30 min p.i.) was 42 %ID/g and the “%ID/g Kidneys” value (KB tumor-bearing mice; 30 min p.i., listed as 12) was 41.80 ± 2.58 %ID/g. For the same substance, the “%ID/g Kidneys” value (KB tumor-bearing mice; [3]) was 0.26 ± 0.08 %ID/g, the “%ID/g Kidneys” value (KB tumor-bearing mice; 60 min p.i.) was 40.77 ± 4.34 %ID/g and the “%ID/g Kidneys” value (KB tumor-bearing mice; 90 min p.i.) was 41.04 ± 7.04 %ID/g. The “%ID/g Liver” value (KB tumor-bearing mice; 30 min p.i.) was 5.2 %ID/g, the “%ID/g Liver” value (KB tumor-bearing mice; 30 min p.i., listed as 12) was 5.24 ± 1.57 %ID/g and the “%ID/g Liver” value (KB tumor-bearing mice; [3]) was 0.21 ± 0.09 %ID/g. For the same substance, the “%ID/g Liver” value (KB tumor-bearing mice; 60 min p.i.) was 4.05 ± 0.67 %ID/g, the “%ID/g Liver” value (KB tumor-bearing mice; 90 min p.i.) was 2.1 %ID/g and the “%ID/g Liver” value (KB tumor-bearing mice; 90 min p.i., listed as 12) was 2.30 ± 0.54 %ID/g. For the same substance, the “%ID/g Lung” value (KB tumor-bearing mice; 30 min p.i.) was 1.21 ± 0.15 %ID/g, the “%ID/g Lung” value (KB tumor-bearing mice; [3]) was 0.04 ± 0.03 %ID/g and the “%ID/g Lung” value (KB tumor-bearing mice; 60 min p.i.) was 1.02 ± 0.7 %ID/g. The “%ID/g Lung” value (KB tumor-bearing mice; 90 min p.i.) was 0.86 ± 0.17 %ID/g, the “%ID/g Muscle” value (KB tumor-bearing mice; 30 min p.i.) was 1.91 ± 0.25 %ID/g and the “%ID/g Muscle” value (KB tumor-bearing mice; [3]) was 0.08 ± 0.09 %ID/g. For the same substance, the “%ID/g Muscle” value (KB tumor-bearing mice; 60 min p.i.) was 1.64 ± 0.46 %ID/g, the “%ID/g Muscle” value (KB tumor-bearing mice; 90 min p.i.) was 1.17 ± 0.03 %ID/g and the “%ID/g Salivary glands” value (KB tumor-bearing mice; 30 min p.i.) was 8.01 ± 1.16 %ID/g. For the same substance, the “%ID/g Salivary glands” value (KB tumor-bearing mice; [3]) was 0.20 ± 0.18 %ID/g, the “%ID/g Salivary glands” value (KB tumor-bearing mice; 60 min p.i.) was 9.28 ± 1.68 %ID/g and the “%ID/g Salivary glands” value (KB tumor-bearing mice; 90 min p.i.) was 7.03 ± 1.98 %ID/g. For the same substance, the “%ID/g Spleen” value (KB tumor-bearing mice; 30 min p.i.) was 0.53 ± 0.14 %ID/g, the “%ID/g Spleen” value (KB tumor-bearing mice; [3]) was 0.06 ± 0.03 %ID/g and the “%ID/g Spleen” value (KB tumor-bearing mice; 60 min p.i.) was 0.49 ± 0.04 %ID/g. For the same substance, the “%ID/g Spleen” value (KB tumor-bearing mice; 90 min p.i.) was 0.43 ± 0.08 %ID/g, the “%ID/g Stomach (empty)” value (KB tumor-bearing mice; 30 min p.i.) was 2.18 ± 0.76 %ID/g and the “%ID/g Stomach (empty)” value (KB tumor-bearing mice; [3]) was 0.12 ± 0.11 %ID/g. The “%ID/g Stomach (empty)” value (KB tumor-bearing mice; 60 min p.i.) was 1.39 ± 0.13 %ID/g, the “%ID/g Stomach (empty)” value (KB tumor-bearing mice; 90 min p.i.) was 0.96 ± 0.37 %ID/g and the “stability in fetal calf serum (radio-HPLC)” value [1] was “No degradation or defluorination”.
